Experiments:
Assay type in all cases: cell-based
human endothelial cells = assay: Intracellular nanorheology (bead tracking) of 3-D-embedded endothelial cells
Source text: Endothelial cells cultured atop highly malleable surfaces retain a spherical configuration, fail to organize stress fibers, and are unable to exert tractional forces—a phenotype identical to that observed in 3-D-embedded, Fn matrix assembly-incompetent endothelial cells. A cell's internal stiffness is a viscoelastic property governed by cytoskeletal assembly, actin crosslinking, and the production of actomyosin-dependent stress. Internal stiffness changes as a function of the perceived stiffness of the surrounding substratum (Solon et al. 2007. Biophys. J., 93(12): 4453-4461). Therefore, the micromechanical properties of 3-D-embedded endothelial cells were monitored via intracellular nanorheology.
Prior to embedding in the 3-D fibrin matrix, endothelial cells were ballistically microinjected with 100 nm polystyrene beads to circumvent the endocytic pathway and subsequent directed motion of the beads. After 3 days of incubation, the beads dispersed in the cytoplasm and their centroids were tracked with high spatial and temporal resolution using fluorescence microscopy. […] Elastic moduli, which quantify the local resistance of the cytoplasm against small random forces acting on the surface of the beads, were derived from MSD curves to quantify cellular mechanical properties.
In the absence of Fn fibrillogenesis, an impaired ability of embedded endothelial cells to generate myosin-dependent forces and increase cytoplasmic stiffness was predicted to affect both Fn unfolding, as well as the ability of the cells to properly register the mechanical properties of the surrounding substratum (Wu et al. 1995. Cell, 83(5): 715-724; Zhong et al. 1998. J. Cell Biol., 141(2): 539-551; Baneyx et al. 2002. Proc. Natl. Acad. Sci. USA, 99(8): 5139-5143; Discher et al. 2005. Science, 310(5751): 1139-1143; Engler, supra; and Yoneda, supra). As such, the rheologic and functional characteristics of endothelial cells were assessed in the presence of the specific myosin ATPase inhibitor, blebbistatin. […]

[1] = tested on: Human umbilical vein endothelial cells; assay: Nesprin distribution at the nuclear envelope in 3-D fibrin gels; conditions: VEGF/HGF-stimulated
Source text: Physical interactions between cytoskeletal networks and the nucleus are mediated by a family of Klarsicht, ANC-1, Syne homology (KASH) domain-containing proteins. The C-terminal domains of the proteins are embedded within the outer nuclear membrane, where they interact with the inner nuclear membrane via members of the SUN protein family (Crisp et al., 2006. J. Cell Biol., 172: 41-53; Dechat et al., supra; Starr, supra; Stewart et al., supra; Wilhelmsen et al., 2006. J. Cell Biol., 171: 799-810). In turn, SUN proteins span the inner nuclear membrane to establish binding interactions with a scaffold of lamin family members and nuclear pore complexes (Dechat et al., supra; Starr, supra; Stewart et al., supra). To determine whether this interaction plays a role in the nuclear morphology regulation by ECM remodeling, expression of nesprins-1 and 2 (also termed Syne-1 and 2) nesprin-3 was examined in 3-D-embedded endothelial cells. Nesprins-1 and 2 bind F-actin, while nesprin-3 indirectly interacts with intermediate filaments via binding of plectin (Crisp and Burke, 2008. FEBS Lett., 582: 2023-2032; Starr, supra; Stewart et al., supra).

[2] = tested on: Human umbilical vein endothelial cells; assay: Protein synthesis in 3-D-embedded endothelial cells; conditions: growth factor-stimulated cells
Source text: The laminar network of type A and type B lamins directly or indirectly binds chromatin and DNA, as well as a variety of inner nuclear membrane proteins functionally linked to nuclear architecture and mechanical integrity, chromatin organization, gene regulation, and DNA replication (Crisp and Burke, supra; Dechat et al., supra; Starr, supra).

[3] = tested on: Human umbilical vein endothelial cells; assay: Nucleoli and nuclear speckle morphology (fibrillarin, SC-35 immunostaining); conditions: for fibrillarin or SC-35 distribution: 2-D culture conditions; for patterns of fibrillarin and SC-35 staining: 3-D culture, VEGF/HGF-stimulated
Source text: At sites of tissue damage, inflammation or neoplasia, fibrinogen is converted into a 3-D meshwork of fibrin fibrils that serve as a structural support for endothelial cells undergoing neovascularization (Chun et al. 2006. Cell, 125: 577-591; Hiraoka et al. 1998. Cell, 95: 365-377; Schafer and Werner. 2008. Nat. Rev. Mol. Cell Biol., 9: 628-638; Zhou et al. 2008. Genes Dev., 22: 1231-1243). This process can be recapitulated in vitro by embedding serum-supplemented human endothelial cells within a 3-D fibrin gel in the presence of the pro-angiogenic factors, VEGF and HGF. Human umbilical vein endothelial cells were isolated from umbilical cords by perfusion of the umbilical vein with type 3 collagenase (Worthington, Lakewood, N.J.) and cultured in Medium-199 (Invitrogen, Carlsbad, Calif.) with 20% human serum and 50 μg/ml endothelial cell growth supplement (ECGS; BD Biosciences, Franklin Lakes, N.J.). For 3-D culture, endothelial cells were suspended in a solution of thrombin and aprotinin (Sigma, St. Louis, Mo.) and mixed 1:1 with a solution of 6 mg/ml fibrinogen (Calbiochem, Gibbstown, N.J.). Vasculogenesis was triggered by treatment with 100 ng/ml VEGF, 50 ng/ml HGF (Genentech, San Francisco, Calif.). Fibronectin fibrillogenesis was tracked in 3-D by co-culture with human fibronectin (Sigma) labeled with Alexa-594 (Invitrogen).
The morphology of nucleoli and nuclear speckles—which serve, respectively, as ribosomal RNA and pre-mRNA processing sites—was assessed by immunostaining for fibrillarin (a pre-rRNA processing protein) or SC-35 (a pre-mRNA splicing protein) (Tang et al., supra). […] Likewise, nuclear speckle morphology changed from a small number of large foci to more numerous, smaller foci.

Compound | cytoplasmic stiffness (human endothelial cells; 3-D fibrin gel, 50 μM blebbistatin) | nesprin distribution at the nuclear envelope [1] | protein synthesis [2] | fibrillarin or SC-35 distribution [3] | patterns of fibrillarin and SC-35 staining [3] | mean square displacement (MSD) of the beads (human endothelial cells; 3-D fibrin matrix, 3 days, relative to control cells) | elastic modulus of the cytoplasm (human endothelial cells; 3-D fibrin matrix, versus control cells, P<0.001)
Cc1ccc2c(c1)C(=O)C1(O)CCN(c3ccccc3)C1=N2 (centres unmarked) [blebbistatin] | failed to increase | – | – | – | – | – | –
CNC(=O)[C@H](Cc1c[nH]c2ccccc12)NC(=O)[C@@H](CC(=O)NO)CC(C)C [GM6001] | – | irregular nesprin distributions | no major changes | did not affect | reversed to that resembling unstimulated endothelial cells | – | –
FUD: 49-residue functional upstream domain of Streptococcus pyogenes F1 adhesion protein, SEQ ID NO: 10; fibronectin fibril assembly inhibitor (KDQSPLAGESGETEYITEVYGNQQNPVDIDKKLPNETGFSGNMVETEDT; Streptococcus pyogenes; Functional Upstream Domain (FUD) of F1 adhesion protein) | – | irregular nesprin distributions | no major changes | did not affect | reversed to that resembling unstimulated endothelial cells | significantly increased | significantly lower

From US8697081B2, “Method of modulating neovascularization” (The Regents of the University of Michigan, priority 2008, dated 2014)
